Structures can show the parent of a compound that is named as a salt. Where two headings read alike, the source gives them in different places.
Tests used:
Type in all cases: cell-based
[1] = test system: HCT116: human colon cancer cell line; experiment: Growth inhibition (cytotoxicity, WST-8) of HCT116 cells expressing only a low level of microsomal dipeptidase
Procedure: The activation of the compounds is mediated by microsomal dipeptidase. The inhibitory activities of the compounds is determined against growth of the cells expressing a low level of microsomal dipeptidase, those expressing a high level of microsomal dipeptidase, and granulocyte progenitors that are expanded ex vivo. […] A stable transfectant, HCT116/S5, into which the human microsomal dipeptidase cDNA (herafter called MDP) connected to the CMV promoter was transfected, is used as the cells expressing a high level of microsomal dipeptidase. […] HCT116, HCT116/S5, and granulocyte porogenitors are cultured in the absence and presence of the drugs. […] The IC50 values are determined and compared among HCT116, HCT116/S5, and granulocyte porogenitors.
Transfection of the DNA was carried out by using TransIT-LT2 (PanVera, Madison, USA, Calatog No. MIR2320) according to the manufacturer's instruction. […] The cells that grew in the presence of 1 mg/ml G418 were collected and cultivated in MaCoy5A medium.
By using 96-multi well plates, approximately 2×10^3 cells per well of the HCT116 bearing pRC/CMV and HCT116S5 carrying pRC/CMV-MDP were cultured in 200 μl of McCoy5A medium supplemented with 10% FBS in the presence or absence of the indicated concentrations of the drugs at 37° C. under 5% CO2 in humidified air. The cells were exposed to drugs for 24 hr (taxol, camptothecins and their prodrugs) or 96 hr (DMDC and its compounds). When the drug exposure time to the cells was 24 hr, culture medium containing drugs were removed, and the cells were washed and suspended in the fresh medium without drugs and further cultured at 37° C. under 5% CO2 in humidified air for the indicated days. […] To examine the effects of drugs on granulocyte progenitors, the granulocyte progenitors, which were expanded on a monolayer of MS-5 for 7 days, were collected and washed with RPMI1640 medium. Approximately 5000 cells were suspended in 200 μl of RPMI medium supplemented with 10% FBS and 50 ng/ml of G-CSF in the presence or absence of drugs and cultured in the presence of drugs for 24 hr (taxol, camptothecins and their prodrugs) or 7 days (DMDC and its prodrug) at 37° C. under 5% CO2 in humidified air. When the exposure time of drugs to the cells was 24 hr, the drugs were removed at 24 hr after addition of drugs by washing the cells with the above medium, and the cells were further cultured for 6 days in the same medium without drugs.

[2] = test system: HCT116/S5: HCT116 transfected with the human microsomal dipeptidase cDNA; experiment: Growth inhibition (cytotoxicity, WST-8) of HCT116/S5 cells expressing a high level of microsomal dipeptidase
Procedure: (§1) The activation of the compounds is mediated by microsomal dipeptidase. The inhibitory activities of the compounds is determined against growth of the cells expressing a low level of microsomal dipeptidase, those expressing a high level of microsomal dipeptidase, and granulocyte progenitors that are expanded ex vivo. The human colon cancer cell line, HCT116 (American Type Culture Collection No. CCL-247), and granulocyte progenitors are used as the cells expressing only a low level of microsomal dipeptidase. A stable transfectant, HCT116/S5, into which the human microsomal dipeptidase cDNA (herafter called MDP) connected to the CMV promoter was transfected, is used as the cells expressing a high level of microsomal dipeptidase. The dipeptidase cDNA (Satoh et al. Biotechnol. Prog. 10 (2), 134-140 (1994)) and other references) and the cloning procedures as mentioned are known in the art. HCT116, HCT116/S5, and granulocyte porogenitors are cultured in the absence and presence of the drugs. […] The IC50 values are determined and compared among HCT116, HCT116/S5, and granulocyte porogenitors. Although time duration of the exposure of the cells to the drugs varies depending on the cells and drugs, it can be 24 hr, 96 or 168 hr.
Transfection of the DNA was carried out by using TransIT-LT2 (PanVera, Madison, USA, Calatog No. MIR2320) according to the manufacturer's instruction. The resulting transfectants were cultivated in MaCoy5A medium (Sigma, St Louis, USA, Catalog No. M8403) supplemented with 10% (v/v) fetal bovine serum and 1 mg/ml of geneticin disulfate (Wako, Osaka, Japan, Catalog No. 535-24624). The cells that grew in the presence of 1 mg/ml G418 were collected and cultivated in MaCoy5A medium.
By using 96-multi well plates, approximately 2×10^3 cells per well of the HCT116 bearing pRC/CMV and HCT116S5 carrying pRC/CMV-MDP were cultured in 200 μl of McCoy5A medium supplemented with 10% FBS in the presence or absence of the indicated concentrations of the drugs at 37° C. under 5% CO2 in humidified air. The cells were exposed to drugs for 24 hr (taxol, camptothecins and their prodrugs) or 96 hr (DMDC and its compounds). When the drug exposure time to the cells was 24 hr, culture medium containing drugs were removed, and the cells were washed and suspended in the fresh medium without drugs and further cultured at 37° C. under 5% CO2 in humidified air for the indicated days. Then, 10 μl of WST-8 (Cell Counting Kit-8, Wako, Osaka, Japan, Catalog No.343-07623) were added to the cultures, and the cells were further incubated at 37° C. for 1 or 2 hr. Cell growth inhibition was calculated as IC50 values according to optical densities at 450 nm and at 655 nm. To examine the effects of drugs on granulocyte progenitors, the granulocyte progenitors, which were expanded on a monolayer of MS-5 for 7 days, were collected and washed with RPMI1640 medium. Approximately 5000 cells were suspended in 200 μl of RPMI medium supplemented with 10% FBS and 50 ng/ml of G-CSF in the presence or absence of drugs and cultured in the presence of drugs for 24 hr (taxol, camptothecins and their prodrugs) or 7 days (DMDC and its prodrug) at 37° C. under 5% CO2 in humidified air. When the exposure time of drugs to the cells was 24 hr, the drugs were removed at 24 hr after addition of drugs by washing the cells with the above medium, and the cells were further cultured for 6 days in the same medium without drugs. Therafter, 20 μl of WST-1 (Roche Diagnostics, Mannheim, Germany, Catalog No. 1644807) were added to the cultures, and the cells were further incubated at 37° C. for 6 hr. Cell growth inhibition was calculated as IC50 values according to optical densities at 450 nm and at 655 nm.

[3] = test system: CFU-GM: human bematopoietic progenitor cells; experiment: Growth inhibition (cytotoxicity, WST-1) of granulocyte progenitors expanded ex vivo (CFU-GM)
Procedure: as §1
CD34-positive mononuclear cells derived from the human umbilical cord blood and bone marrow (Veritas Co, Tokyo, Japan, Catalog No.CB009F, ABM019F) were cultured on a confluent monolayer of MS5 (Itoh, K., et al. Reproducible establishment of hematopoietic supportive stromal cells from murine bone marrow. Exp. Hematol. 17, 145-153 (1989)). Mouse stromal cell lines in alpha MEM medium (Life Technologies, Gaithersburg, USA, Catalog No.12571-0063) supplemented with 10% (v/v) horse serum (HS) (Stem Cell Technologies, Vancouver, Canada, Catalog No. 06750), 10% (v/v) fetal bovine serum (FBS) (Stem Cell Technologies, Vancouver, Canada, Catalog No.06450), 50 ng/ml Flt3 ligand (PeproTec EC., London, UK., Catalog No. 300-19), 100 ng/ml SCF (PeproTech EC, London, UK., Catalog No. 300-07), and 50 ng/ml TPO (PeproTech EC, London, England, Catalog No. 300-18) at 37° C. under 5% CO2 in humidified air. Floating hematopoietic cells were collected and stained by monoclonal antibodies against PerCP-anti-CD34 (BD pharMingen, San Diego, USA, Catalog No.340430), PE-anti-CD13 (BD pharMingen, San Diego, USA, Catalog No. 30525X) and FlTC-anti-15(BD pharMingen, SanDiego, USA, Catalog No. PM30525X). Five microlitter of each antibody was added to a […] of cell suspension and incubated at 4° C. for 25 min. After washing with PBS containing 10% (v/v) FCS, the expression of CD antigens were detected by using FACSCalibur (Becton Dickinson, Franklin Lakes, N.J., USA) according to the FACSCalibur Traing mannual (FACStation ver1.1. Becton Dickinson, Franklin Lakes, N.J., USA.). […]

[4] = drug exposure time, 24 hr, then drug removed and cells cultured further, read-out: Cytotoxicity (IC50 in nM) HCT116
[5] = drug exposure time, 24 hr, then drug removed and cells cultured further, read-out: Cytotoxicity (IC50 in nM) HCT116/S5
[6] = drug exposure time, 24 hr, then cultured for 6 days without drugs, read-out: Cytotoxicity (IC50 in nM) CFU-GM

Row | SMILES | IC50 [3] [nM] | IC50 [1, 4] [nM] | IC50 [2, 5] [nM] | IC50 [3, 6] [nM] | further results
1 | C=C1C(n2ccc(NC(=O)CC[C@@H](NC(=O)[C@@H](N)Cc3ccc(-c4ccccc4)cc3)C(=O)O)nc2=O)O[C@H](CO)[C@H]1O (stereo partly shown) [Example 16] | – | – | – | – | IC50 ([1]; drug exposure time, 96 hr, read-out: Cytotoxicity (IC50 in nM) HCT116): 1.7 nM; IC50 ([2]; drug exposure time, 96 hr, read-out: Cytotoxicity (IC50 in nM) HCT116/S5): 0.23 nM; IC50 ([3]; drug exposure time, 168 hr (7 days), read-out: Cytotoxicity (IC50 in nM) CFU-GM): 2.8 nM
2 | C=C1C(n2ccc(NC(=O)CC[C@@H](NC(=O)[C@@H](N)Cc3ccc4ccccc4c3)C(=O)O)nc2=O)O[C@H](CO)[C@H]1O (stereo partly drawn) [Example 17, (2R)-((2S)-Amino-3-naphthalen-2-ylpropionylamino)-4-[1-((4S)-hydroxy-(5R)-hydroxymethyl-3-methylenetetrahydrofuran-2-yl)-2-oxo-1,2-dihydropyrimidin-4-ylcarbamoyl]butyric acid] | 1.1 | – | – | – | IC50 [1]: 0.99 nM; IC50 [2]: 0.098 nM
3 | CCCCCN1C=Nc2c3c(nc4cccc1c24)-c1cc2c(c(=O)n1C3)COC(=O)[C@@]2(CC)OC(=O)C[C@@H](NC(=O)[C@@H](N)CC1CCCCC1)C(=O)O [Example 49-11, (9S)-9-ethyl-9-[(L)-cyclohexylalanyl-(D)-β-aspartyloxy]-1-pentyl-1H,12H-pyrano[3″,4″:6′,7′]indolizino[1′,2′:6,5]pyrido[4,3,2-de]quinazoline-10,13(9H,15H)-dione hydrochloride] | – | > 50 | 13 | 120 | –
4 | CCc1c2c(nc3ccc(O)cc13)-c1cc3c(c(=O)n1C2)COC(=O)[C@@]3(CC)OC(=O)CC[C@@H](NC(=O)[C@@H](N)Cc1ccccc1)C(=O)O [Example 39, 7-ethyl-10-hydroxy-20-O—[(S)-phenylalanyl-γ-(R)-glutamyl]-20(S)-camptothecin hydrochloride] | 20 | 23 | 2.8 | – | –
5 | CCCCCN1C=Nc2c3c(nc4cccc1c24)-c1cc2c(c(=O)n1C3)COC(=O)[C@@]2(CC)OC(=O)CC[C@@H](NC(=O)[C@@H](N)CC1CCCCC1)C(=O)O [Example 49-2, (9S)-9-ethyl-9-[(L)-cyclohexylalanyl-(D)-γ-glutamyloxy]-1-pentyl-1H,12H-pyrano[3″,4″:6′,7′]indolizino[1′,2′:6,5]pyrido[4,3,2-de]quinazoline-10,13(9H,15H)-dione hydrochloride] | – | 18 | 2.6 | 31 | –
6 | CCc1c2c(nc3ccc(O)cc13)-c1cc3c(c(=O)n1C2)COC(=O)[C@]3(O)CC [SN 38, reference compound] | – | 3.7 | 2.2 | 1.8 | –
7 | CCCCCN1C=Nc2cccc3nc4c(c1c23)Cn1c-4cc2c(c1=O)COC(=O)[C@@]2(CC)OC(=O)CC[C@@H](NC(=O)[C@@H](N)Cc1ccccc1)C(=O)O [Example 49-3, (9S)-9-ethyl-9-[(L)-phenylalanyl-(D)-γ-glutamyloxy]-1-pentyl-1H,12H-pyrano[3″,4″:6′,7′]-indolizino[1′,2′:6,5]pyrido[4,3,2-de]quinazoline-10,13(9H,15H)-dione hydrochloride] | – | > 50 | 2.9 | 250 | –
8 | CCCCCN1C=Nc2cccc3nc4c(c1c23)Cn1c-4cc2c(c1=O)COC(=O)[C@@]2(CC)OC(=O)CC[C@H](NC(=O)[C@@H](N)Cc1c[nH]c2ccccc12)C(=O)O [Example 49-1, (9S)-9-ethyl-9-[(L)-tryptophyl-(L)-γ-glutamyloxy]-1-pentyl-1H,12H-pyrano[3″,4″:6′,7′]indolizino[1′,2′:6,5]pyrido[4,3,2-de]quinazoline-10,13(9H,15H)-dione hydrochloride] | – | 33 | 3.3 | 61 | –
9 | CCCCCN1C=Nc2cccc3nc4c(c1c23)Cn1c-4cc2c(c1=O)COC(=O)[C@@]2(CC)OC(=O)CC[C@@H](NC(=O)[C@@H](N)CC(C)C)C(=O)O [Example 49-4, (9S)-9-ethyl-9-[(L)-leucyl-(D)-γ-glutamyloxy]-1-pentyl-1H,12H-pyrano[3″,4″:6′,7′]-indolizino[1′,2′:6,5]pyrido[4,3,2-de]quinazoline-10,13(9H,15H)-dione hydrochloride] | – | 15 | 2.1 | – | –
10 | CC[C@@]1(OC(=O)CC[C@@H](NC(=O)[C@H](N)Cc2c[nH]c3ccccc23)C(=O)O)C(=O)OCc2c1cc1n(c2=O)Cc2cc3ccccc3nc2-1 [Example 31, 20-O—[(R)-tryptophyl-γ-(R)-glutamyl]-20(S)-camptothecin hydrochloride] | 18200 | 3 | – | – | –

From US20030138864A1, “Method for identifying an enzyme to design anti-cancer compounds” (priority 2001, published 2003)
